Experimental data published in BindingDB's records for doi:10.1021/jm00022a006 (Eli Lilly, 1995).

The molecules below were run against Leukotriene B4 receptor 1 (Cavia porcellus) (assay: Binding affinity towards LTB4 receptor guinea pig spleen cells using [3H]LTB4 as radioligand).

Question: How did the Ki turn out when `CCCc1c(OCCCOc2cc(O)c(-c3ccc(F)cc3)cc2CC)cccc1[S+]([O-])c1ccccc1C(=O)O` (stereo not drawn) [2-{3-[3-(5-Ethyl-4'-fluoro-2-hydroxy-biphenyl-4-yloxy)-propoxy]-2-propyl-benzenesulfinyl}-benzoic acid] was run?
Answer: 5.9 nM

Question: Which Ki does the source give for `CCCc1c(OCCCOc2cc(O)c(-c3ccc(F)cc3)cc2CC)cccc1C(=O)c1ccccc1C(=O)O` [2-{3-[3-(5-Ethyl-4'-fluoro-2-hydroxy-biphenyl-4-yloxy)-propoxy]-2-propyl-benzoyl}-benzoic acid] here?
Answer: 33 nM

Question: With `CCCc1c(OCCCOc2cc(O)c(-c3ccc(F)cc3)cc2CC)cccc1Sc1ccccc1C(=O)O` [2-{3-[3-(5-Ethyl-4'-fluoro-2-hydroxy-biphenyl-4-yloxy)-propoxy]-2-propyl-phenylsulfanyl}-benzoic acid] as the molecule, how does the Ki read?
Answer: 42 nM
